Measurements reported in ChEMBL document CHEMBL1201862, “PubChem BioAssay data set” (2004).
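1) Cells in 96-well plates. 2) Compound, 48 h, 5 concentrations. 3) Linear interpolation between surrounding doses. 4) Unreached endpoint = highest concentration. Here, GI50 denotes the concentration required for 50% inhibition of growth.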 The source made the active and inactive calls. Cut-off read from the data, not from the text of the source: active = GI50 up to about 1.1 µM and inactive = higher.

How the values were obtained:
Assay in all cases: inhibition of tumour cell growth, NCI panel, 48 h
[1] = system: 786-0
[2] = system: A498
[3] = system: A549
[4] = system: ACHN
[5] = system: BT-549
[6] = system: CAKI-1
[7] = system: CCRF-CEM
[8] = system: COLO 205
[9] = system: DU-145
[10] = system: EKVX
[11] = system: HCC 2998
[12] = system: HCT-116
[13] = system: HCT-15
[14] = system: HOP-62
[15] = system: HT-29
[16] = system: Hs-578T
[17] = system: IGROV-1
[18] = system: K562
[19] = system: KM12
[20] = system: LOX IMVI
[21] = system: M14
[22] = system: MCF7
[23] = system: MDA-MB-231
[24] = system: MDA-MB-435
[25] = system: MDA-N
[26] = system: MOLT-4
[27] = system: Malme-3M
[28] = system: NCI-H226
[29] = system: NCI-H23
[30] = system: NCI-H460
[31] = system: NCI-H522
[32] = system: NCI/ADR-RES
[33] = system: OVCAR-3
[34] = system: OVCAR-4
[35] = system: OVCAR-5
[36] = system: OVCAR-8
[37] = system: PC-3
[38] = system: RPMI-8226
[39] = system: RXF 393
[40] = system: SF-268
[41] = system: SF-295
[42] = system: SK-MEL-28
[43] = system: SK-MEL-2
[44] = system: SK-MEL-5
[45] = system: SK-OV-3
[46] = system: SN12C
[47] = system: SNB-19
[48] = system: SW-620
[49] = system: T47D
[50] = system: TK-10
[51] = system: U-251
[52] = system: UACC-257
[53] = system: UACC-62
[54] = system: UO-31
[55] = system: HOP-92
[56] = system: SNB-75
[57] = system: HL-60
[58] = system: SF-539
[59] = system: SR

O=C(O)c1cccc(CN2CCCCC2)c1
GI50 [1]: > 100 µM (inactive)
GI50 [2]: > 100 µM (inactive)
GI50 [3]: > 100 µM (inactive)
GI50 [4]: > 100 µM (inactive)
GI50 [5]: > 100 µM (inactive)
GI50 [6]: > 100 µM (inactive)
GI50 [7]: > 100 µM (inactive)
GI50 [8]: > 100 µM (inactive)
GI50 [9]: > 100 µM (inactive)
GI50 [10]: > 100 µM (inactive)
GI50 [11]: > 100 µM (inactive)
GI50 [12]: > 100 µM (inactive)
GI50 [13]: > 100 µM
GI50 [14]: > 100 µM (inactive)
GI50 [15]: > 100 µM (inactive)
GI50 [16]: > 100 µM (inactive)
GI50 [17]: > 100 µM (inactive)
GI50 [18]: > 100 µM (inactive)
GI50 [19]: > 100 µM (inactive)
GI50 [20]: > 100 µM (inactive)
GI50 [21]: > 100 µM (inactive)
GI50 [22]: > 100 µM (inactive)
GI50 [23]: > 100 µM (inactive)
GI50 [24]: > 100 µM (inactive)
GI50 [25]: > 100 µM (inactive)
GI50 [26]: > 100 µM (inactive)
GI50 [27]: > 100 µM (inactive)
GI50 [28]: > 100 µM (inactive)
GI50 [29]: > 100 µM (inactive)
GI50 [30]: > 100 µM (inactive)
GI50 [31]: > 100 µM (inactive)
GI50 [32]: > 100 µM (inactive)
GI50 [33]: > 100 µM (inactive)
GI50 [34]: > 100 µM (inactive)
GI50 [35]: > 100 µM (inactive)
GI50 [36]: > 100 µM (inactive)
GI50 [37]: > 100 µM (inactive)
GI50 [38]: > 100 µM (inactive)
GI50 [39]: > 100 µM (inactive)
GI50 [40]: > 100 µM (inactive)
GI50 [41]: > 100 µM (inactive)
GI50 [42]: > 100 µM (inactive)
GI50 [43]: > 100 µM (inactive)
GI50 [44]: > 100 µM (inactive)
GI50 [45]: > 100 µM (inactive)
GI50 [46]: > 100 µM (inactive)
GI50 [47]: > 100 µM (inactive)
GI50 [48]: > 100 µM (inactive)
GI50 [49]: > 100 µM (inactive)
GI50 [50]: > 100 µM (inactive)
GI50 [51]: > 100 µM (inactive)
GI50 [52]: > 100 µM (inactive)
GI50 [53]: > 100 µM (inactive)
GI50 [54]: > 100 µM (inactive)

CC(C)C1=CC(=O)[C@@](C)(C2[C@H](O)C[C@@]3(C)[C@@H]4CC=C5[C@@H](CC[C@@H](OC6OCC(O)C(O)C6OC6OC(C)C(O)C(O)C6O)C5(C)C)[C@]4(C)C(=O)C[C@]23C)O1 (stereo partly drawn)
GI50 [1]: > 100 µM (inactive)
GI50 [2]: > 100 µM (inactive)
GI50 [3]: > 100 µM (inactive)
GI50 [4]: > 100 µM (inactive)
GI50 [5]: > 100 µM (inactive)
GI50 [6]: > 100 µM (inactive)
GI50 [7]: > 100 µM (inactive)
GI50 [8]: > 100 µM (inactive)
GI50 [9]: > 100 µM (inactive)
GI50 [10]: > 100 µM (inactive)
GI50 [11]: > 100 µM (inactive)
GI50 [12]: > 100 µM (inactive)
GI50 [13]: > 100 µM
GI50 [14]: > 100 µM (inactive)
GI50 [55]: > 100 µM (inactive)
GI50 [15]: > 100 µM (inactive)
GI50 [16]: > 100 µM (inactive)
GI50 [17]: > 100 µM (inactive)
GI50 [18]: > 100 µM (inactive)
GI50 [19]: > 100 µM (inactive)
GI50 [21]: > 100 µM (inactive)
GI50 [22]: > 100 µM (inactive)
GI50 [23]: > 100 µM (inactive)
GI50 [24]: > 100 µM (inactive)
GI50 [25]: > 100 µM (inactive)
GI50 [26]: > 100 µM (inactive)
GI50 [27]: > 100 µM (inactive)
GI50 [28]: > 100 µM (inactive)
GI50 [29]: > 100 µM (inactive)
GI50 [30]: > 100 µM (inactive)
GI50 [31]: > 100 µM (inactive)
GI50 [32]: > 100 µM (inactive)
GI50 [33]: > 100 µM (inactive)
GI50 [34]: > 100 µM (inactive)
GI50 [35]: > 100 µM (inactive)
GI50 [36]: > 100 µM (inactive)
GI50 [37]: > 100 µM (inactive)
GI50 [38]: > 100 µM (inactive)
GI50 [39]: > 100 µM (inactive)
GI50 [40]: > 100 µM (inactive)
GI50 [41]: 59 µM (inactive)
GI50 [42]: > 100 µM (inactive)
GI50 [44]: > 100 µM (inactive)
GI50 [45]: > 100 µM (inactive)
GI50 [46]: > 100 µM (inactive)
GI50 [47]: > 100 µM (inactive)
GI50 [56]: > 100 µM (inactive)
GI50 [48]: > 100 µM (inactive)
GI50 [49]: > 100 µM (inactive)
GI50 [51]: > 100 µM (inactive)
GI50 [53]: > 100 µM (inactive)
GI50 [54]: > 100 µM (inactive)

COc1ccc(-c2cc(=O)c3c(OC)c(O)c(OC)cc3o2)cc1
GI50 [1]: 47.4 µM (inactive)
GI50 [2]: 30 µM (inactive)
GI50 [3]: 42.5 µM (inactive)
GI50 [4]: 30.5 µM (inactive)
GI50 [5]: 55.3 µM (inactive)
GI50 [6]: 85.5 µM (inactive)
GI50 [7]: 38.4 µM (inactive)
GI50 [8]: 49 µM (inactive)
GI50 [9]: 49.3 µM (inactive)
GI50 [10]: 50.8 µM (inactive)
GI50 [11]: 47 µM (inactive)
GI50 [12]: 46.8 µM (inactive)
GI50 [13]: 35 µM
GI50 [57]: 52 µM (inactive)
GI50 [14]: 38.1 µM (inactive)
GI50 [55]: 20.9 µM (inactive)
GI50 [15]: 35.5 µM (inactive)
GI50 [16]: 40.4 µM (inactive)
GI50 [17]: 33 µM (inactive)
GI50 [18]: 52.4 µM (inactive)
GI50 [20]: 36.9 µM (inactive)
GI50 [21]: 58.3 µM (inactive)
GI50 [22]: 42.7 µM (inactive)
GI50 [23]: 23.6 µM (inactive)
GI50 [24]: 42.4 µM (inactive)
GI50 [25]: 47.3 µM (inactive)
GI50 [26]: 59.3 µM (inactive)
GI50 [27]: 96.2 µM (inactive)
GI50 [28]: 70 µM (inactive)
GI50 [29]: 48.5 µM (inactive)
GI50 [30]: 32.8 µM (inactive)
GI50 [31]: 17.9 µM (inactive)
GI50 [32]: 29.1 µM (inactive)
GI50 [33]: 34 µM (inactive)
GI50 [34]: 40.4 µM (inactive)
GI50 [35]: > 100 µM (inactive)
GI50 [36]: 56.6 µM (inactive)
GI50 [38]: 27.8 µM (inactive)
GI50 [39]: 36.6 µM (inactive)
GI50 [40]: 91.4 µM (inactive)
GI50 [41]: 30.8 µM (inactive)
GI50 [58]: 77.4 µM (inactive)
GI50 [42]: > 100 µM (inactive)
GI50 [43]: 57.1 µM (inactive)
GI50 [44]: 23.4 µM (inactive)
GI50 [45]: 50.7 µM (inactive)
GI50 [46]: 26.9 µM (inactive)
GI50 [47]: 58.7 µM (inactive)
GI50 [56]: 21.8 µM (inactive)
GI50 [59]: 73.8 µM (inactive)
GI50 [48]: 54.3 µM (inactive)
GI50 [49]: 23.1 µM (inactive)
GI50 [50]: 28.3 µM (inactive)
GI50 [51]: 63.1 µM (inactive)
GI50 [52]: 36.1 µM (inactive)
GI50 [53]: 30.8 µM (inactive)
GI50 [54]: 30.7 µM (inactive)
